# Source: ChEMBL document CHEMBL5725742, “Imidazopyridazine derivatives as PI3KB inhibitors” (2018)
# pKd: −log10 of the molar value.
# What was measured:
# [1] = (§1) KINOMEscan Enzyme Binding Assays: Kinase enzyme binding affinities of compounds disclosed herein were determined using the KINOMEscan technology performed by DiscoveRx Corporation, San Diego, Calif., USA (www.kinomescan.com).
# [2] = target: T1, Phosphatidylinositol 4,5-bisphosphate 3-kinase catalytic subunit delta isoform (Homo sapiens, UniProt O00329); test: as §1
# T1 sequence (O00329 whole entry): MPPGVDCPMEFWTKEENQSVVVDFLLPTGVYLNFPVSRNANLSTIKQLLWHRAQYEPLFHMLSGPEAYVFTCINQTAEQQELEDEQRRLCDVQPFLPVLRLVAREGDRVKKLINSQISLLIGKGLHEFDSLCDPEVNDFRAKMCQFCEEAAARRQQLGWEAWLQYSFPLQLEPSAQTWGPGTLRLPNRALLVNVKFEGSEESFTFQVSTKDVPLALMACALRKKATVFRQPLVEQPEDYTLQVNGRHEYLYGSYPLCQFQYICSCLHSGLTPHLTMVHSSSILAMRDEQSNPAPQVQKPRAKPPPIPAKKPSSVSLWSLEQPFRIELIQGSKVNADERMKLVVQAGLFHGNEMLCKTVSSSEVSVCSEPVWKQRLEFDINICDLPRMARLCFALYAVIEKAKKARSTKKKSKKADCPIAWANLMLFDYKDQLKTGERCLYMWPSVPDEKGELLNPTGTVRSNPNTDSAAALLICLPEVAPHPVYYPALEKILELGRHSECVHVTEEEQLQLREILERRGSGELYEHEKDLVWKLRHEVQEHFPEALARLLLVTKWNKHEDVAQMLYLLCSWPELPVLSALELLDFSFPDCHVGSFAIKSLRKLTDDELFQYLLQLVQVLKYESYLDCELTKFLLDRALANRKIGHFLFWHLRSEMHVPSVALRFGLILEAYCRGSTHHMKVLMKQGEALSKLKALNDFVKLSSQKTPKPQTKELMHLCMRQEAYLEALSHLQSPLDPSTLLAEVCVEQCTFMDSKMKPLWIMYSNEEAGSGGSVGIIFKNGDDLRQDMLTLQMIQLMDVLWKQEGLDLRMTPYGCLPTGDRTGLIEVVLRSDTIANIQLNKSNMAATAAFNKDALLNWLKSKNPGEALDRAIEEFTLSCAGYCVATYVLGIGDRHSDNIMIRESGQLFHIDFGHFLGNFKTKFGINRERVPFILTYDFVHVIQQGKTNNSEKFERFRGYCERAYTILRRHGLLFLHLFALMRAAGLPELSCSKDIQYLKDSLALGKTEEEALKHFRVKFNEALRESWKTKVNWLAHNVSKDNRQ
# [3] = target: Phosphatidylinositol 4,5-bisphosphate 3-kinase catalytic subunit gamma isoform (Homo sapiens, UniProt P48736); test: as §1
# Phosphatidylinositol 4,5-bisphosphate 3-kinase catalytic subunit gamma isoform, sequence (P48736 whole entry, canonical isoform): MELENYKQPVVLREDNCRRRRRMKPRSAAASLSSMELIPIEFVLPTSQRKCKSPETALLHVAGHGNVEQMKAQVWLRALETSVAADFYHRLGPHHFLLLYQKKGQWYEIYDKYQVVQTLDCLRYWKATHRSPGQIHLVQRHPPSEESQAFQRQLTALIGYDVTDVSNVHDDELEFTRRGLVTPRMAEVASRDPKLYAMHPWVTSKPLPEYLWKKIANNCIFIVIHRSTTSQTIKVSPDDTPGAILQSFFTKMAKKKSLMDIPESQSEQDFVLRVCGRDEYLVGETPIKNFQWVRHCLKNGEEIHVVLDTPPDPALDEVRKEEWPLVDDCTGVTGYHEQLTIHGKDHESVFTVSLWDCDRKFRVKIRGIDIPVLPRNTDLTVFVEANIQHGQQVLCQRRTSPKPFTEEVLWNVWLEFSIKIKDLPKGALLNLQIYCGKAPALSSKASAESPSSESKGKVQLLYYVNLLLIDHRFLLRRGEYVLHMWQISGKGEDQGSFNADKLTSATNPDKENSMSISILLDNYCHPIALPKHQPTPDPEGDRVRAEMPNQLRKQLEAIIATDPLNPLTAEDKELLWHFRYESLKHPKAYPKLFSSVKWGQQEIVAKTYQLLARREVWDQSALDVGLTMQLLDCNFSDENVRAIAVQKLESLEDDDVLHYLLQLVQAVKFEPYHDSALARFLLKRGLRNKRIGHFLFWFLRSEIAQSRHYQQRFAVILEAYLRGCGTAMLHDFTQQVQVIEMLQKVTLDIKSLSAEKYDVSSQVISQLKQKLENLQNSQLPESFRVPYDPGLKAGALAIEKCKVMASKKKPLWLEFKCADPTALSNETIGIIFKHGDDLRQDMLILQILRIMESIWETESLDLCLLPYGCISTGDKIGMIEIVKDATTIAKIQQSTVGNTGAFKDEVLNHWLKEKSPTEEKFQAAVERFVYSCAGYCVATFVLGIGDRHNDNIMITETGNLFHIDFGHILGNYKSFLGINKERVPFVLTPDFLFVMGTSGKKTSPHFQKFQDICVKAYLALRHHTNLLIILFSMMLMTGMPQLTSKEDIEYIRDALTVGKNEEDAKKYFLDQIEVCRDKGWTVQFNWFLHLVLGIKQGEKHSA
SMILES,pKd [1],pKd [2],pKd [3]
CC(CO)NCc1c(F)cccc1Cc1c(CO)nc2c(N)cc(N3CCOCC3)nn12 (stereo not given),< 4.52,,
CCc1c(F)cccc1Cc1c(CNCCO)nc2c(N)cc(N3CCOCC3)nn12,,6.37,6.14
Cc1c(Cc2c(CO)nc3c(-c4cnc[nH]4)cc(N4CCOCC4)nn23)cccc1C(F)(F)F,,7.10,5.75
